Experimental data: patent US11560385B2, “Proteasome activity enhancing compounds” (Proteostasis Therapeutics, Inc., priority 2018, dated 2023)
pIC50: −log10 of the molar value.

These compounds were tested against USP14 (Homo sapiens (Human), UniProt P54578) (assay: Usp14 inhibition assay (Example 57B, B-series compounds)). Conditions: IC50 class; average value from a minimum of two experimental determinations.
Chain of USP14 (P54578 whole entry, looked up): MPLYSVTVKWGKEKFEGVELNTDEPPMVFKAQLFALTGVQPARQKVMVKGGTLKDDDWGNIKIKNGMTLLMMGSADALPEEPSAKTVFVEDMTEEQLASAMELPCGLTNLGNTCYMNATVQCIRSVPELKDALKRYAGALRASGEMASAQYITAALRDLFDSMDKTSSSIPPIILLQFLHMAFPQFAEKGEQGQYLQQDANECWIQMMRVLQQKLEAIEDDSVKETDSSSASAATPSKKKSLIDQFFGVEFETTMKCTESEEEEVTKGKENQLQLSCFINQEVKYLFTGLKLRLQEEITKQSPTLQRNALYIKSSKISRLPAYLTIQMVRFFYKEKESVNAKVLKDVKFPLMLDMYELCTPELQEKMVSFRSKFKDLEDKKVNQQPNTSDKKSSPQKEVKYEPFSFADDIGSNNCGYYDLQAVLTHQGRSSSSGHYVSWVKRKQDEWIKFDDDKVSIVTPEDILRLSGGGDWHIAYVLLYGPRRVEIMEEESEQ
Assay type: biochemical
From the text: Example 57B: Usp14 Inhibition Assay
The IC50 values in the Table below represent the average value from a minimum of two experimental determinations.
With `Cc1c(C(=O)CN2[C@H]3CC[C@@H]2[C@@H](O)C3)cc(CC23CC(C2)C3)n1-c1ccc(C#N)cc1` (racemic) [Example 158B, (±)-4-(5-(Bicyclo[1.1.1]pentan-1-ylmethyl)-3-(2-((1R,2S,4S)-2-hydroxy-7-azabicyclo[2.2.1]heptan-7-yl)acetyl)-2-methyl-1H-pyrrol-1-yl)benzonitrile] the pIC50 was under 6.30. `Cc1c(C(=O)CN2C3CCC2CC3)cc(CC2COC2)n1-c1ccc(C#N)cc1` [Example 54B, 4-(3-(2-(7-Azabicyclo[2.2.1]heptan-7-yl)acetyl)-2-methyl-5-(oxetan-3-ylmethyl)-1H-pyrrol-1-yl)benzonitrile] gave a pIC50 of over 7.30. `Cc1c(C(=O)CN2C3CCC2[C@@H](O)C3)cc(C[C@H]2C[C@H](C#N)C2)n1-c1ccc(C#N)cc1` (mixture of isomers) [Example 45B, (±)-4-(5-(((1r,3R)-3-Cyanocyclobutyl)methyl)-3-(2-((2R)-2-hydroxy-7-azabicyclo[2.2.1]heptan-7-yl)acetyl)-2-methyl-1H-pyrrol-1-yl)benzonitrile] showed a pIC50 of over 7.30. Compound `Cc1c(C(=O)CN2C3CCC2C(O)C3)cc([C@@H]2C[C@H]2CCC#N)n1-c1ccc(C#N)cc1` (mixture of isomers) [Example 17B, (±)-4-(5-((1R,2R)-2-(2-Cyanoethyl)cyclopropyl)-3-(2-((2R)-2-hydroxy-7-azabicyclo[2.2.1]heptan-7-yl)acetyl)-2-methyl-1H-pyrrol-1-yl)benzonitrile] has a pIC50 of 6.30 to 7.30. `Cc1c(C(=O)CN2C3CCC2[C@@H](O)C3)cc(/C=C/CCC#N)n1-c1ccc(C#N)cc1` (mixture of isomers) [Example 20B, (±)-4-(5-((E)-4-Cyanobut-1-en-1-yl)-3-(2-((2R)-2-hydroxy-7-azabicyclo[2.2.1]heptan-7-yl)acetyl)-2-methyl-1H-pyrrol-1-yl)benzonitrile] gave a pIC50 of over 7.30. `Cc1c(F)c(C(=O)CN2[C@@H]3CC[C@H]2[C@H](C)C3)c(C)n1-c1ccc(C#N)cc1` (racemic) [Example 121B, (±)-4-(3-Fluoro-2,5-dimethyl-4-(2-((1S,2R,4R)-2-methyl-7-azabicyclo[2.2.1]heptan-7-yl)acetyl)-1H-pyrrol-1-yl)benzonitrile] showed a pIC50 of 6.30 to 7.30. With `Cc1cc(C(=O)CN2[C@@H]3CC[C@H]2[C@H](C)C3)c(C)n1-c1ccc(C#N)cc1` (racemic) [Example 122B, (±)-4-(2,5-Dimethyl-3-(2-((1S,2R,4R)-2-methyl-7-azabicyclo[2.2.1]heptan-7-yl)acetyl)-1H-pyrrol-1-yl)benzonitrile] the pIC50 was 6.30 to 7.30. In the case of `Cc1c(CCCCS(C)(=O)=O)c(C(=O)CN2C3CCC2[C@@H](O)C3)c(C)n1-c1ccc(C#N)cc1` (mixture of isomers) [Example 19B, (±)-4-(3-(2-((2R)-2-Hydroxy-7-azabicyclo[2.2.1]heptan-7-yl)acetyl)-2,5-dimethyl-4-(4-(methylsulfonyl)butyl)-1H-pyrrol-1-yl)benzonitrile], the pIC50 was under 6.30. Work on `Cc1cc(C(=O)CN2C3CCC2[C@@H](O)C3)c(C)n1-c1ccc(C#N)cc1` (mixture of isomers) [Example 64B, (±)-4-(3-(2-((2R)-2-Hydroxy-7-azabicyclo[2.2.1]heptan-7-yl)acetyl)-2,5-dimethyl-1H-pyrrol-1-yl)benzonitrile] yielded a pIC50 of 6.30 to 7.30. Work on `Cc1c(C(=O)CN2[C@@H]3CC[C@H]2[C@@H](O)C3)cc(CCCCC2CCOCC2)n1-c1ccc(C#N)cc1` (racemic) [Example 14B, (±)-4-(3-(2-((1S,2S,4R)-2-Hydroxy-7-azabicyclo[2.2.1]heptan-7-yl)acetyl)-2-methyl-5-(4-(tetrahydro-2H-pyran-4-yl)butyl)-1H-pyrrol-1-yl)benzonitrile] yielded a pIC50 of over 7.30. With `Cc1cc(C(=O)CN2[C@@H]3CC[C@H]2[C@@H](C)[C@H]3C)c(C)n1-c1ccc(C#N)cc1` [Example 124B, 4-(3-(2-((1R,2R,3S,4S)-2,3-Dimethyl-7-azabicyclo[2.2.1]heptan-7-yl)acetyl)-2,5-dimethyl-1H-pyrrol-1-yl)benzonitrile] the pIC50 was 6.30 to 7.30. In the case of `Cc1c(C(=O)CN2C3CC4CC2CC(C3)O4)cc(C#CCCC#N)n1-c1ccc(C#N)cc1` [Example 21B, 4-(3-(2-((1r,3r,5r,7r)-2-Oxa-6-azaadamantan-6-yl)acetyl)-5-(4-cyanobut-1-yn-1-yl)-2-methyl-1H-pyrrol-1-yl)benzonitrile], the pIC50 was 6.30 to 7.30. `Cc1cc(C(=O)CN2C3CCC2[C@@H](O)C3)c(C)n1-c1cc(F)c(C#N)cc1F` (mixture of isomers) [Example 107B, (±)-2,5-Difluoro-4-(3-(2-((2R)-2-hydroxy-7-azabicyclo[2.2.1]heptan-7-yl)acetyl)-2,5-dimethyl-1H-pyrrol-1-yl)benzonitrile] gave a pIC50 of 6.30 to 7.30. In the case of `Cc1cc(C(=O)CN2C3CCC2[C@@H](O)C3)c(C)n1-c1ccc(Cl)c(F)c1` (mixture of isomers) [Example 117B, (±)-1-(1-(4-Chloro-3-fluorophenyl)-2,5-dimethyl-1H-pyrrol-3-yl)-2-((2R)-2-hydroxy-7-azabicyclo[2.2.1]heptan-7-yl)ethan-1-one], the pIC50 was 6.30 to 7.30. `Cc1c(C(=O)CN2C3CCC2[C@@H](O)C3)cc(CCCn2cccn2)n1-c1ccc(C#N)cc1` (mixture of isomers) [Example 24B, (±)-4-(5-(3-(1H-Pyrazol-1-yl)propyl)-3-(2-((2R)-2-hydroxy-7-azabicyclo[2.2.1]heptan-7-yl)acetyl)-2-methyl-1H-pyrrol-1-yl)benzonitrile] was tested, and the pIC50 was 6.30 to 7.30. Compound `Cc1c(C(=O)CN2C3CCC2C(O)C3)cc([C@@H](C)C2CCC2)n1-c1ccc(C#N)cc1` (mixture of isomers) [Example 150B, (±)-4-(5-((S)-1-Cyclobutylethyl)-3-(2-((2R)-2-hydroxy-7-azabicyclo[2.2.1]heptan-7-yl)acetyl)-2-methyl-1H-pyrrol-1-yl)benzonitrile] has a pIC50 of 6.30 to 7.30. In the case of `CO[C@H]1C[C@H]2CC[C@@H]1N2CC(=O)c1cc(C)n(-c2ccc(C#N)cc2)c1C` (racemic) [Example 70B, (±)-4-(3-(2-((1R,2R,4S)-2-Methoxy-7-azabicyclo[2.2.1]heptan-7-yl)acetyl)-2,5-dimethyl-1H-pyrrol-1-yl)benzonitrile], the pIC50 was 6.30 to 7.30. `Cc1c(C(=O)CN2C3CCC2[C@@H](O)C3)cc(C2CCC2)n1-c1ccc(C#N)cc1` (mixture of isomers) [Example 108B, (±)-4-(5-Cyclobutyl-3-(2-((2R)-2-hydroxy-7-azabicyclo[2.2.1]heptan-7-yl)acetyl)-2-methyl-1H-pyrrol-1-yl)benzonitrile] gave a pIC50 of over 7.30. `Cc1c(C(=O)CN2C3CCC2[C@@H](O)C3)cc(C2CC2)n1-c1ccc(C#N)cc1` (mixture of isomers) [Example 98B, (±)-4-(5-Cyclopropyl-3-(2-((2R)-2-hydroxy-7-azabicyclo[2.2.1]heptan-7-yl)acetyl)-2-methyl-1H-pyrrol-1-yl)benzonitrile] was tested, and the pIC50 was 6.30 to 7.30. `Cc1c(C(=O)CN2C3CCC2[C@@H](O)C3)c(C)n(-c2ccc(C#N)cc2)c1C` (mixture of isomers) [Example 76B, (±)-4-(3-(2-((2R)-2-Hydroxy-7-azabicyclo[2.2.1]heptan-7-yl)acetyl)-2,4,5-trimethyl-1H-pyrrol-1-yl)benzonitrile] showed a pIC50 of 6.30 to 7.30. Work on `Cc1c(C(=O)CN2C3CCC2CC3)cc(CCCCS(C)(=O)=O)n1-c1ccc(C#N)cc1` [Example 30B, 4-(3-(2-(7-Azabicyclo[2.2.1]heptan-7-yl)acetyl)-2-methyl-5-(4-(methylsulfonyl)butyl)-1H-pyrrol-1-yl)benzonitrile] yielded a pIC50 of over 7.30. `Cc1c(C(=O)CN2[C@@H]3CC[C@H]2[C@@H](O)C3)cc(CC2CCC2)n1-c1ccc(C#N)cc1` (racemic) [Example 133B, (±)-4-(5-(Cyclobutylmethyl)-3-(2-((1R,2R,4S)-2-hydroxy-7-azabicyclo[2.2.1]heptan-7-yl)acetyl)-2-methyl-1H-pyrrol-1-yl)benzonitrile] was tested, and the pIC50 was over 7.30. With `Cc1c(C(=O)CN2[C@@H]3CC[C@H]2[C@@H](O)C3)cc(/C=C/Cn2cccn2)n1-c1ccc(C#N)cc1` (racemic) [Example 27B, (±)-4-(5-((E)-3-(1H-Pyrazol-1-yl)prop-1-en-1-yl)-3-(2-((1S,2S,4R)-2-hydroxy-7-azabicyclo[2.2.1]heptan-7-yl)acetyl)-2-methyl-1H-pyrrol-1-yl)benzonitrile] the pIC50 was over 7.30. Compound `Cc1c(F)c(C(=O)CN2C3CC4CC2CC(C3)O4)c(C)n1-c1ccc(C#N)c(F)c1` (racemic) [Example 116B, (±)-4-(3-(2-((1r,3r)-2-Oxa-6-azaadamantan-6-yl)acetyl)-4-fluoro-2,5-dimethyl-1H-pyrrol-1-yl)-2-fluorobenzonitrile] has a pIC50 of 6.30 to 7.30. Compound `Cc1cc(C(=O)CN2[C@@H]3CC[C@H]2[C@@H](C(F)(F)F)C3)c(C)n1-c1ccc(C#N)cc1` (racemic) [Example 102B, (±)-4-(2,5-Dimethyl-3-(2-((1R,2R,4S)-2-(trifluoromethyl)-7-azabicyclo[2.2.1]heptan-7-yl)acetyl)-1H-pyrrol-1-yl)benzonitrile] has a pIC50 of under 6.30. `Cc1c(C(=O)CN2C3CCC2CC3)cc(C#N)n1-c1ccc(C#N)cc1` [Example 137B, 4-(2-(7-Azabicyclo[2.2.1]heptan-7-yl)acetyl)-1-(4-cyanophenyl)-5-methyl-1H-pyrrole-2-carbonitrile] showed a pIC50 of over 7.30. `Cc1c(C(=O)CN2[C@@H]3CC[C@H]2[C@@H](O)C3)cc(CCCCC#N)n1-c1ccc(Cl)cc1` (racemic) [Example 29B, (±)-5-(1-(4-Chlorophenyl)-4-(2-((1R,2R,4S)-2-hydroxy-7-azabicyclo[2.2.1]heptan-7-yl)acetyl)-5-methyl-1H-pyrrol-2-yl)pentanenitrile] was tested, and the pIC50 was over 7.30. Work on `Cc1c(C(=O)CN2[C@@H]3CC[C@H]2[C@@H](C)C3)cc(CC2COC2)n1-c1ccc(C#N)cc1` (racemic) [Example 53B, (±)-4-(2-Methyl-3-(2-((1R,2R,4S)-2-methyl-7-azabicyclo[2.2.1]heptan-7-yl)acetyl)-5-(oxetan-3-ylmethyl)-1H-pyrrol-1-yl)benzonitrile] yielded a pIC50 of over 7.30. For `Cc1c(C(=O)CN2C3CCC2[C@@H](O)C3)cc(/C=C/CN2C(=O)c3ccccc3C2=O)n1-c1ccc(C#N)cc1` (mixture of isomers) [Example 153B, (±)-4-(5-0E)-3-(1,3-Dioxoisoindolin-2-yl)prop-1-en-1-yl)-3-(2-((1R,2R,4S)-2-hydroxy-7-azabicyclo[2.2.1]heptan-7-yl)acetyl)-2-methyl-1H-pyrrol-1-yl)benzonitrile], the pIC50 was over 7.30.
